The values below come from patent US8497274B2, “Heterocyclic compound and use thereof” (Takeda Pharmaceutical Company Limited, priority 2008, dated 2013).

Bounds are passed on as bounds.

The target in experiment [1] is BRAF (V600E) kinase (Homo sapiens (Human), UniProt P15056, V600E). Nature of the experiment: BRAF (V600E) kinase inhibitory activity. The settings on record: BRAF (V600E) enzyme, GSTP1-MEK1 (K96R) substrate, compound 1.0 μM; read-out: Inhibitory rate (%) at 1.0 μM. It counts as biochemical. As to the method: A test compound (2.5 μL) dissolved in dimethyl sulfoxide (DMSO) was added to 37.5 μL of a reaction solution (25 mM HEPES (pH 7.5), 10 mM magnesium acetate, 1 mM dithiothreitol) containing 30 ng of BRAF (V600E) enzyme and 250 ng of recombinant protein GSTP1-MEK1 (K96R) prepared using FreeStyle 293 expression system (Invitrogen), and the mixture was incubated at room temperature for 10 min. 10 μL of ATP solution (2.5 μM ATP, 0.1 μCi [γ-^32P]ATP) was added to the obtained mixture, and the mixture was reacted at room temperature for 20 min. The reaction was quenched by adding 50 μL of ice-cooled 20% trichloroacetic acid (Wako Pure Chemical Industries, Ltd.) to the reaction solution. The reaction solution was allowed to stand at 4° C. for 30 min., and the acid-precipitable fraction was transferred to GF/C filter plate (Millipore Corporation) using cell harvester (PerkinElmer). The plate was dried at 45° C. for 60 min., and 40 μL of MicroScinti 0 (PerkinElmer) was added thereto. The radioactivity was measured using TopCount (PerkinElmer). The kinase inhibitory rate (%) of the test compound was calculated by the following formula: Inhibitory rate (%)=(1−(count of test compound−blank)÷(control−blank))×100
The count of the solution reacted without addition of the compound was used as a “control”, and the count of the solution without the compound and enzyme was used as a “blank”.

Experiment [2] deals with MEK1/2 phosphorylation in human colon cancer cell HT-29. Description: Colon cancer cell HT-29 intracellular MEK phosphorylation inhibitory activity in vitro. It counts as cell-based. The following applies: HT-29 cells; for IC50: 2 hrs treatment, phosphorylated MEK1/2 Western blot; for inhibition at 0.5 µM: MEK1/2 protein phosphorylation, compound 0.5 μM, read-out: Inhibitory rate (%) at 0.5 μM. As to the method: 500 μL of a cell suspension of human colon cancer cell HT-29 (purchased from American Type Culture Collection (ATCC)) was plated in a 48-well plate (100,000 cells/well), and the cells were cultured overnight at 37° C. in the presence of 5% CO2, treated with a test compound (250 μL/well) diluted in 3-fold dilution series and cultured for 2 hrs. After 2 hrs, the culture medium containing the test compound was removed, and the cells were lysed with SDS sample buffer (100 μL/well) and heated at 95° C. for 5 min. Thereafter, the cells lysed with SDS sample buffer were applied to SDS-PAGE, and the protein was transferred onto Sequi-Blot™ PVDF Membrane (Bio-Rad) by the Western blot method. The PDVF membrane was blocked with a Block-Ace solution (Snow Brand Milk Products Co., Ltd) dissolved in phosphate buffered saline (MP Biochemicals) to 5% W/V, and reacted overnight with anti-phosphorylated MEK1/2 (Ser217/221) (Cell signaling #9121) diluted 1000-fold with phosphate buffered saline containing 0.4% Block-Ace. The membrane was washed with phosphate buffered saline containing 0.1% Tween 20 (Wako Pure Chemical Industries, Ltd.), and reacted at room temperature for 1 hr with HRP labeled rabbit IgG polyclonal antibody (Cell signaling #7074) diluted 1000-fold with phosphate buffered saline containing 0.4% Block-Ace. The membrane was washed in the same manner as above, chemical luminescence of a phosphorylated MEK1/2 protein labeled with the antibody, which was caused by ECL-plus Detection Reagent (Amersham bioscience), was detected by Luminescent Image Analyzer LAS-1000 (FUJIFILM Corporation). Taking the luminescence of the control group free of the test compound as 100%, the concentration (IC50 value) of the compound necessary for inhibiting the residual luminescence to 50% of the control group was calculated. In addition, MEK1/2 protein phosphorylation inhibitory rate (%) of the test compound at compound concentration 0.5 μM was calculated by the following formula. The results are shown in Table 2-B. Inhibitory rate (%)=(1−(luminescence of test compound−blank)÷(luminescence of control group−blank))×100

Experiment [3] deals with human colon cancer cell HT-29. Nature of the experiment: Colon cancer cell HT-29 growth suppressive activity in vitro. It counts as cell-based. The settings on record: for IC50: 72 h, HT-29 cells, 3 days culture, SRB staining; for inhibition at 10 µM: HT-29 cell proliferation, compound 10 μM, read-out: Inhibitory rate (%) at 10 μM. As to the method:
100 μL of a cell suspension (3,000 cells/well) of human colon cancer cell HT-29 (purchased from ATCC) was plated in a 96-well plate, and the cells were cultured at 37° C. in the presence of 5% CO2. The next day, 100 μL of culture medium containing each test compound diluted in 2-fold dilution was added, and the cells were cultured for 3 days. The culture medium containing the test compound was removed, and the cells were washed with phosphate buffered saline (MP Biochemicals). A 50% trichloroacetic acid solution was added to the final concentration of 10% (v/v), and the mixture was stood overnight at 4° C., whereby the cells were fixed to the plate. Then, a dye SRB 0.4% (w/v) solution (dissolved in 1% acetic acid) was added at 50 μl/well, whereby the cell protein was fixed and stained (Skehan et al., Journal Of National Cancer Institute, vol. 82, pp. 1107-1112, 1990). The cells were washed 3 times with 1% acetic acid solution (200 μL/well), and 100 μL of an extract (10 mM Tris buffer) was added to extract the dye. The absorbance at an absorption wavelength 550 nm was measured, and cell amount was measured as a protein amount. Taking the protein amount of the control group free of the test compound solution as 100%, the proportion of the residual protein amount of each treatment group was determined and the concentration of the compound necessary for suppressing the residual cell amount to 50% of the control (IC50 value) was calculated. In addition, cell proliferation inhibitory rate (%) of the test compound at compound concentration 10 μM was calculated by the following formula. The results are shown in Table 3-B. Inhibitory rate (%)=(1−(absorbance of test compound−blank)÷(absorbance of control group−blank))×100

BRAF (V600E) kinase, sequence (P15056 457-717 V600E): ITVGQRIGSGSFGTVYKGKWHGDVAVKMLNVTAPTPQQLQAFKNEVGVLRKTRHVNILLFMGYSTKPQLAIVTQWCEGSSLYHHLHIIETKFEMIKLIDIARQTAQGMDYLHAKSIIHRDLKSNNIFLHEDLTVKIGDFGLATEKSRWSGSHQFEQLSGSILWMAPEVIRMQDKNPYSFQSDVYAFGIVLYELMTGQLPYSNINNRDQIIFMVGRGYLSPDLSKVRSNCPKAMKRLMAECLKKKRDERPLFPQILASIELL

Turning to `CC(C)(C#N)c1cccc(C(=O)Nc2cccc(Oc3ccc4nc(NC(=O)C5CC5)sc4c3C#N)c2)c1` [Example 1, N-[3-({7-cyano-2-[(cyclopropylcarbonyl)amino]-1,3-benzothiazol-6-yl}oxy)phenyl]-3-(1-cyano-1-methylethyl)benzamide], the inhibition at 1 µM in experiment [1] is 101%.

As to `CC(=O)Nc1nc2ccc(Oc3cccc(NC(=O)c4cccc(C(C)(C)C#N)c4)c3)c(C#N)c2s1` [Example 11, N-(3-{[2-(acetylamino)-7-cyano-1,3-benzothiazol-6-yl]oxy}phenyl)-3-(1-cyano-1-methylethyl)benzamide], the inhibition at 1 µM in experiment [1] was found to be 101%.

For the compound `CC(=O)Nc1nc2ccc(Oc3cccc(NC(=O)C(C)(C)c4cccc(Br)c4)c3)c(C#N)c2s1` [Example 13, N-(3-{[2-(acetylamino)-7-cyano-1,3-benzothiazol-6-yl]oxy}phenyl)-2-(3-bromophenyl)-2-methylpropanamide], the inhibition at 1 µM in experiment [1] is 98%.

On to `CC(=O)Nc1nc2ccc(Oc3cccc(NC(=O)Nc4ccc(Cl)c(C(F)(F)F)c4)c3)c(C#N)c2s1` [Example 21, N-{6-[3-({[4-chloro-3-(trifluoromethyl)phenyl]carbamoyl}amino)phenoxy]-7-cyano-1,3-benzothiazol-2-yl}acetamide], for which, in experiment [1], the inhibition at 1 µM was 100%.

On to `CC(=O)Nc1nc2ccc(Oc3cccc(NC(=O)Nc4ccc(C(C)(C)C)cc4)c3)c(C#N)c2s1` [Example 22, N-[6-(3-{[(4-tert-butylphenyl)carbamoyl]amino}phenoxy)-7-cyano-1,3-benzothiazol-2-yl]acetamide], for which, in experiment [2], the half-maximal inhibitory concentration (IC50) (usually the concentration that gives 50% inhibition) is < 300 nM and the inhibition at 0.5 µM was found to be 83%.

Regarding `N#Cc1c(Oc2ccc(F)c(NC(=O)Nc3ccc(C(F)(F)F)cc3)c2)ccc2nc(NC(=O)C3CC3)sc12` [Example 32, N-{7-cyano-6-[4-fluoro-3-({[4-(trifluoromethyl)phenyl]carbamoyl}amino)phenoxy]-1,3-benzothiazol-2-yl}cyclopropanecarboxamide], in experiment [2], the IC50 is < 300 nM and the inhibition at 0.5 µM was 83%.

Take `CC(C)(C#N)c1cccc(C(=O)Nc2cccc(Oc3ccc4nc(NC(=O)C5CC5)sc4c3[N+](=O)[O-])c2)c1` [Example 37, 3-(1-cyano-1-methylethyl)-N-[3-({2-[(cyclopropylcarbonyl)amino]-7-nitro-1,3-benzothiazol-6-yl}oxy)phenyl]benzamide]: in experiment [3], the IC50 was < 500 nM and the inhibition at 10 µM stood at 93%.

On to `CC(C)(C#N)c1cccc(C(=O)Nc2cccc(Oc3ccc4nc(NC(=O)C5CC5)sc4c3N)c2)c1` [Example 43, N-[3-({7-amino-2-[(cyclopropylcarbonyl)amino]-1,3-benzothiazol-6-yl}oxy)phenyl]-3-(1-cyano-1-methylethyl)benzamide], for which, in experiment [3], the IC50 was < 500 nM and the inhibition at 10 µM came to 100%.

With `CC(C)(C#N)c1cccc(C(=O)Nc2cccc(Oc3ccc4nc(NC(=O)C5CC5)sc4c3Cl)c2)c1` [Example 44, N-[3-({7-chloro-2-[(cyclopropylcarbonyl)amino]-1,3-benzothiazol-6-yl}oxy)phenyl]-3-(1-cyano-1-methylethyl)benzamide], in experiment [3], the IC50 was < 500 nM and the inhibition at 10 µM was 93%.

Take `CC(=O)Nc1nc2ccc(Oc3cccc(NC(=O)Cc4cccc(C(F)(F)F)c4)c3)c(C#N)c2s1` [Example 49, N-(3-{[2-(acetylamino)-7-cyano-1,3-benzothiazol-6-yl]oxy}phenyl)-2-[3-(trifluoromethyl)phenyl]acetamide]: in experiment [2], the IC50 was < 300 nM and the inhibition at 0.5 µM was found to be 63%.

With `N#Cc1c(Oc2cccc(NC(=O)Nc3ccc(C(F)(F)F)nc3)c2)ccc2nc(NC(=O)C3CC3)sc12` [Example 51, N-{7-cyano-6-[3-({[6-(trifluoromethyl)pyridin-3-yl]carbamoyl}amino)phenoxy]-1,3-benzothiazol-2-yl}cyclopropanecarboxamide], the inhibition at 1 µM in experiment [1] stood at 100%.

For `N#Cc1c(Oc2cccc(NC(=O)Nc3ccc(C(F)(F)F)cn3)c2)ccc2nc(NC(=O)C3CC3)sc12` [Example 52, N-{7-cyano-6-[3-({[5-(trifluoromethyl)pyridin-2-yl]carbamoyl}amino)phenoxy]-1,3-benzothiazol-2-yl}cyclopropanecarboxamide], the inhibition at 1 µM in experiment [1] is 98%.

With `COC(=O)c1c(Oc2ccc(F)c(NC(=O)Cc3cccc(C(F)(F)F)c3)c2)ccc2nc(NC(=O)C3CC3)sc12` [Example 54, methyl 2-[(cyclopropylcarbonyl)amino]-6-[4-fluoro-3-({[3-(trifluoromethyl)phenyl]acetyl}amino)phenoxy]-1,3-benzothiazole-7-carboxylate], in experiment [2], the IC50 is < 300 nM and the inhibition at 0.5 µM is 100%.
